Results reported in BindingDB's records for doi:10.1016/j.ejmech.2013.06.030 (National Institute On Drug Abuse and The National Institute …, 2013).

What follows are compounds tested against Delta-type opioid receptor (Homo sapiens, UniProt P41143) (assay: Displacement of [3H]DADLE from human delta opioid receptor expressed in CHO cells after 2 hrs by liquid scintillation counting).
Delta-type opioid receptor, sequence (P41143 whole entry): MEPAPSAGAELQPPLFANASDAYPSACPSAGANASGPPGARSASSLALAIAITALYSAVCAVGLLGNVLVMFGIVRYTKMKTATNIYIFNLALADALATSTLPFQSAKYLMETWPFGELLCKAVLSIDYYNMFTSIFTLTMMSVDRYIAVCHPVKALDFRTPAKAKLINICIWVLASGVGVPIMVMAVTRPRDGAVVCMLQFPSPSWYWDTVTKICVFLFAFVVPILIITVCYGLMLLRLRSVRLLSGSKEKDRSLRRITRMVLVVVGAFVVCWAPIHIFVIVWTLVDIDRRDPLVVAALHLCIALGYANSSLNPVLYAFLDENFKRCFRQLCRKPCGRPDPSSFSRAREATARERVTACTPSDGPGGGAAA

| Structure (SMILES) | Ki [nM] |
| --- | --- |
| C[C@H]1C[C@H]2C[C@](c3cccc(O)c3)(CCN2C)C1 | 721 |
| CN1CC[C@]2(c3cccc(O)c3)C[C@@H](c3ccccc3)C[C@H]1C2 | 583 |
| C[C@H]1CC[C@@]2(c3cccc(O)c3)CCN(C)[C@@H]1C2 | 139 |
| Oc1cccc([C@@]23CCN(CCc4ccccc4)[C@H](C[C@@H](O)C2)C3)c1 | 876 |
| C[C@H]1CC[C@@]2(c3cccc(O)c3)CCN(CCc3ccccc3)[C@@H]1C2 | 126 |
| Oc1cccc([C@]23CCN(CCc4ccccc4)[C@H](C2)[C@H]2CCCC[C@@H]2C3)c1 | 103 |
| Oc1cccc([C@@]23CCN(CCc4ccccc4)[C@@H](C[C@H](c4ccccc4)C2)C3)c1 | 318 |
| C[C@H]1C[C@H]2C[C@](c3cccc(O)c3)(CCN2CCc2ccccc2)C1 | 260 |
